Assay results as given in ChEMBL document CHEMBL3507680, “University of Dundee, Gates Library screen for HepG2 cell viability”.

Experiment: Human HepG2 cell viability assay in 384 well format
Assay type: toxicity, cell-based
Design: dose 125 nL, time 70.5 hour; concentration not given beside the values
Details: HepG2 cells, read-out: Inhibition

Row | Structure (SMILES) | cytotoxicity at 70.5 h [%]
1 | CCc1c(C)sc2c1c(N)nc(=O)n2CCN1CCOCC1 | 9.55
2 | Cc1nc(CN2Cc3nccn3CC(COCC3CC3)C2)cs1 (stereo not drawn) | -0.0625
3 | O=C(O)c1ccc(F)c(S(=O)(=O)N2CCOc3ccccc32)c1 | -4.17
4 | CN(c1cccnc1N1CCCC1)S(=O)(=O)c1cccs1 | 12.7
5 | CCCc1ccc(CN2CCC3(CCC(=O)N(CCCOC)C3)CC2)o1 | 20.6
6 | NC(=O)c1cc(C2CCCN(CCc3ccccn3)C2)n[nH]1 (stereo not drawn) | -10.6
7 | COc1ccc(CNC(=O)CN2CCc3ccccc32)cc1 | 27
8 | CN(C)c1cc2c(nn1)CCN(C(=O)c1cc3c(s1)CCOC3)C2 | -15.2
9 | COCCCN(CCOC)C(=O)Nc1ccccc1-n1cccn1 | 2.41
10 | CC(=O)Nc1nc(CS(=O)(=O)Cc2ccccc2)cs1 | 20.1
11 | CCOCc1cc(CN2CCn3c(CO)nnc3C2)ccc1OC | 1.27
12 | NC1(c2nc(-c3cccs3)cc(=O)[nH]2)CCCC1 | 8.08
13 | COC[C@H]1CNC(=O)[C@@H]2CCN(Cc3cccc(C)n3)CC[C@H]12 | 0.496
14 | CCCS(=O)(=O)NC(C)C(=O)NCc1ccc(N2CCN(C)CC2)nc1 (stereo not drawn) | -2.17
15 | CCS(=O)(=O)N1CCN(Cc2cccnc2)c2nc(C)ccc2C1 | 5.16
16 | COCC(=O)N1CCC2(CC1)CN(S(C)(=O)=O)Cc1ccccc1O2 | -0.505
17 | O=C(O)c1cc(/C=C/c2ccc3ccccc3c2)ncn1 | -7.92
18 | O=C(CSCc1ccccn1)NCC1CC1 | 0.905
19 | Cc1nc(C2CCCN2C(=O)c2ccc3c(c2)nc(C)n3C)no1 (stereo not drawn) | 3.45
20 | Cc1n[nH]c(C)c1NC(=O)CN1CCCC1c1noc(C2CC2)n1 (stereo not drawn) | -18.5
21 | COCC(=O)N(C)Cc1cccc(Cl)c1 | 38.1

Row | Structure (SMILES) | cytotoxicity at 70.5 h [%]
22 | O=C(c1cn(CCN2CCCCC2)nn1)N1CCCCO1 | 11
23 | COc1cccc2c1N(Cc1nc(C3CC3)no1)CCC2 | 5.14
24 | COCc1cncc2c1CCN(C(=O)c1cscn1)C2 | 20.4
25 | Cc1cnc(-c2nc(C3CCN(Cc4ccccc4Cl)CC3)no2)cn1 | -3.18
26 | Cc1cc(CN2CCc3nc(-c4ccncc4)nc(O)c3CC2)c(C)s1 | -7.8
27 | CNC(=O)CC1CCN(C(=O)NCc2coc3ccccc23)CC1 | 7.31
28 | CCC(CO)N(Cc1ccc(C(=O)O)cc1)Cc1ccsc1 (stereo not drawn) | -5.5
29 | Cn1ccnc1C1CCCN(C(=O)c2ccc3nccnc3c2)C1 (stereo not drawn) | 2.22
30 | O=C(CCn1nc(C(F)(F)F)c(Br)c1C1CC1)NN1CCOCC1 | -4.82
31 | COC(=O)c1sccc1S(=O)(=O)N1CCC(Oc2ncccc2Cl)CC1 | 2.59
32 | CC(NC(=O)CSCC#N)c1ccc(F)cc1 (stereo not drawn) | 10.1
33 | COc1ccc(Oc2ccc(CNC(=O)C3CCS(=O)(=O)C3)cn2)cc1 (stereo not drawn) | -6.05
34 | Cc1c(NCc2ccccc2C#N)cccc1-n1cnnn1 | -3.47
35 | N#Cc1ccccc1OCCN1CCCC(c2noc(C3CC3)n2)C1 (stereo not drawn) | 3.57
36 | CCc1nc(C2CCCN2Cc2nccn2Cc2ccccc2)no1 (stereo not drawn) | -10.3
37 | Cc1nc(C)c(C(=O)N2CCc3c(C)cccc32)o1 | -5.23
38 | CCN1C(=O)CO[C@@H]2CN(C(=O)C3CCOCC3)C[C@H]21 | -6.45
39 | O=C(c1ccc2c(c1)OCO2)N1CCC[C@]2(C[C@H](OCC3CC3)CO2)C1 | -9.71
40 | CC(C)Oc1ncccc1CNC(=O)Nc1ccccn1 | 0.773
41 | O=C(c1ccnnc1)N1C[C@@H]2CN(c3ncccn3)C[C@@H]2C1 | 7.41
42 | O=C(Nc1ccncc1)N(CCO)Cc1ccsc1 | -20

Row | Structure (SMILES) | cytotoxicity at 70.5 h [%]
43 | CCN(Cc1ccccn1)C1CCN(c2ccccc2)C1=O (stereo not drawn) | -5.06
44 | Cc1nc(CN2CCCC(CCc3ccccc3C)C2)c[nH]1 (stereo not drawn) | 19
45 | COc1ccc(NC(C)C(=O)NCCc2cccs2)cc1F (stereo not drawn) | 9.05
46 | COc1cnc(N2CCCN(Cc3ccc(F)cc3)CC2)nc1 | 4.55
47 | Cc1nnc(C2CCN(C(=O)c3ccc4[nH]ccc4c3)CC2)s1 | -5.35
48 | Cc1cc(CNC(=O)COc2ccccc2F)c(C)o1 | -0.958
49 | CC(C)c1nccn1CC(=O)Nc1ccnn1C(C)C(C)C (stereo not drawn) | -16
50 | Cc1nc(CN2CCCC(NCc3ccc4c(c3)CCO4)C2)no1 (stereo not drawn) | 14.2
51 | Cc1nn(CC(=O)Nc2ccc(F)cc2)c(N)c1C#N | -0.498
52 | Cc1ccc(C(=O)N2CC[C@@H](N(C)C)[C@@H]2Cc2cnn(C)c2)cn1 | -10.1
53 | CCn1ccc(NC(=O)c2cc(C)on2)n1 | -8.5
54 | O=C(N[C@]12CC1CN(C(=O)c1ccco1)C2)c1ccoc1 (stereo partly drawn) | -7.38
55 | CC1=N[C@@]2(CC[C@@H]3CN(Cc4ccc(C)cc4)C[C@@H]32)C(=O)N1CC1CC1 | -12.4
56 | CCNC(=O)c1ccc(NC2CCOC3(CCCCC3)C2)nn1 (stereo not drawn) | 16.8
57 | O=C(NCc1nccn1CCc1ccccc1)NCC1(O)CCC1 | 1.18
58 | O=C1CCC(=O)N1c1nn(Cc2ccc(F)cc2)cc1Cl | 18.7
59 | Cc1ncc2c(n1)CCN(CCCc1nc3ccccc3o1)C2 | -2.27
60 | Cn1cccc1C1CCCN1C(=O)NCCCn1cccn1 (stereo not drawn) | -7.92
61 | Cc1ccc(N2CCCC(NCC(=O)Nc3cc(C)no3)C2)nn1 (stereo not drawn) | 25.6
62 | O=C(CCc1ccsc1)NCC1CCN(Cc2cccs2)CC1 | -4.26
63 | Cc1ccc(C)c(Oc2ccc(CNC(=O)C3CNC(=O)N3)cn2)c1 (stereo not drawn) | -1.21

Row | Structure (SMILES) | cytotoxicity at 70.5 h [%]
64 | Cn1cc(-c2cccc(CNC(=O)N3CCC[C@@H]3CO)c2)cn1 | -4.94
65 | COc1cccc2c1OCC(C(=O)NCCCn1nc(C)c(Cl)c1C)C2 (stereo not drawn) | -7.76
66 | CC(C)C(=O)NCc1ccc(N2CCCC2)nc1 | -3.37
67 | OC(CN1CCN(c2ncccn2)CC1)c1cccc(F)c1 (stereo not drawn) | -9.46
68 | COc1ccc(C(CNC(=O)Nc2cc(C)nn2C)N(C)C)cc1 (stereo not drawn) | -5.49
69 | CCCn1nccc1-c1cc(C2CCN(S(C)(=O)=O)CC2)ccn1 | -6.09
70 | Cc1cc(C(=O)N2CCc3ncnc(-c4cnn(C)c4)c3CC2)no1 | 2.85
71 | c1cncc(-c2noc(CNC3CCc4ncnn4C3)n2)c1 (stereo not drawn) | -5.95
72 | CCc1ncc2c(n1)CN(Cc1cnc(C)cn1)CC2 | -72.8
73 | c1cc(CNCC2Cn3nncc3CO2)ccn1 (stereo not drawn) | -5.93
74 | CN(C)C(=O)CN1CCC2(CCN(C(=O)N(C)C)CC2)C1=O | 17
75 | CNc1nc(C)c(C(=O)NCC(C)(C)N2CCCCC2)s1 | -0.6
76 | NC(=O)c1ccc(N2CCCCC2)c(NC(=O)c2cc(Br)ccc2F)c1 | -5.55
77 | COc1ccc(OC)c(CN(C)c2ncc(S(N)(=O)=O)s2)c1 | -10.9
78 | COc1cccc(NC(C(N)=O)c2ccc(Br)cc2)c1 (stereo not drawn) | -10.7
79 | NC(=O)CN1CCC(c2cncc(-c3cccc(Cl)c3)n2)CC1 | 15.3
80 | Cc1nc(N2CCCCC2)ncc1C(=O)N1CC(C)(C)[C@@](C)(O)C1 | -6.11
81 | CN(Cc1ccc(C(=O)O)cc1)C(=O)c1sccc1OC(F)F | 3.59
82 | O=c1[nH]c(CN2CCOC(Cn3cccn3)C2)nc2ccccc12 (stereo not drawn) | -6.2
83 | Cc1cnn(CC(C)NCc2csc(-c3ncccn3)n2)c1 (stereo not drawn) | -2.17
